# Data from patent publication US20040014681A1, “Method for treating dermatoses and tissue damage” (priority 2002, published 2004).
# Assays:
# [1] = Case examples: topical treatment of poison ivy lesions; format: in vivo, human; settings: Case 4, young person, poison ivy lesions on back, once a day application
# Description: (§1) The following non-limiting case examples are presented to further illustrate the present invention: In the following examples, unless otherwise stated, the ointment contained about 0.15-0.22 mg of topiramate per ml of ointment (Thermaderm, an aqueous vanishing cream emollient) and sodium bicarbonate in an amount to provide a pH of about 7.8-8.
# Case 3: Poison Ivy—A young child with known sensitivity to poison ivy presents with typical raised red vesicular lesions on their hands and left forearm. Topiramate cream/ointment was applied daily with the disappearance of lesions after 3 days.
# Case 4: Poison Ivy—A young person having a history of extreme sensitivity to poison ivy presented with the entire right lower quadrant of their back covered with red, vesicular, and oozing lesions. These lesions cleared after four days of once a day application of Topiramate, at which time the application was stopped, leaving the skin dry with dead scales/scabs. The patient was seen four days later in this condition and began to apply Topirmate cream/lotion ever other day with complete resolution over the next six days.
# [2] = several rodent models of epilepsy and an animal model of kindled epilepsy; cited from earlier work
# [3] = adjunctive therapy or monotherapy; cited from earlier work
# [4] = Case examples: topical treatment of contact dermatitis to jewelry; format: in vivo, human; settings: Case 5, adult, recurring red oozing dermatitis under gold and stone ring
# Description: as §1
# Case 5: Contact dermatitis to jewelry. […] This was usually treated with topical 0.1% mometasone furoate once daily for six or seven days with clearing of the lesion.
# Case 6. Contact dermatitis to jewelry. An adult presented with a recurring red oozing dermatitis under a tight fitting silver/gold stone bracelet on their left wrist occurring especially during the winter and usually treated with topical corticosteroids over a five day period. Topiramate cream/ointment was applied daily with complete clearing in two days.
compound,measurement,setting,value
"CC1(C)O[C@@H]2[C@@H](CO[C@@]3(COS(N)(=O)=O)OC(C)(C)O[C@@H]23)O1 [topiramate, 2,3:4,5-bis-O-(1-methylethylidence)-β-D-fructopyranose sulfamate]",time until lesions cleared,[1],four
same,block of seizures,[2],effectively block seizures
same,efficacy in clinical trials of human epilepsy,[3],effective as adjunctive therapy or as monotherapy
C[C@@H]1C[C@H]2[C@@H]3CCC4=CC(=O)C=C[C@]4(C)[C@@]3(Cl)[C@@H](O)C[C@]2(C)[C@@]1(OC(=O)c1ccco1)C(=O)CCl [mometasone furoate],time until clearing of the lesion,[4],six or seven
